This is an account of results in patent publication US8987312B2, “Alpha-keto heterocycles as FAAH inhibitors” (The Scripps Research Institute, priority 2008, dated 2015).

Read-outs that look alike come from different tables or passages of the source. Where only a bound is given, the exact number is not on record here.

Common to all, as to format: biochemical
Test [1] has as its target T1, triacylglycerol hydrolase (TGH) (Mus musculus, UniProt Q8VCT4).
T1 construct: with FP-Rh in brain and heart membrane proteome; from tissue; host or cells: brain and heart membrane proteome
T1 sequence (Q8VCT4 19-565): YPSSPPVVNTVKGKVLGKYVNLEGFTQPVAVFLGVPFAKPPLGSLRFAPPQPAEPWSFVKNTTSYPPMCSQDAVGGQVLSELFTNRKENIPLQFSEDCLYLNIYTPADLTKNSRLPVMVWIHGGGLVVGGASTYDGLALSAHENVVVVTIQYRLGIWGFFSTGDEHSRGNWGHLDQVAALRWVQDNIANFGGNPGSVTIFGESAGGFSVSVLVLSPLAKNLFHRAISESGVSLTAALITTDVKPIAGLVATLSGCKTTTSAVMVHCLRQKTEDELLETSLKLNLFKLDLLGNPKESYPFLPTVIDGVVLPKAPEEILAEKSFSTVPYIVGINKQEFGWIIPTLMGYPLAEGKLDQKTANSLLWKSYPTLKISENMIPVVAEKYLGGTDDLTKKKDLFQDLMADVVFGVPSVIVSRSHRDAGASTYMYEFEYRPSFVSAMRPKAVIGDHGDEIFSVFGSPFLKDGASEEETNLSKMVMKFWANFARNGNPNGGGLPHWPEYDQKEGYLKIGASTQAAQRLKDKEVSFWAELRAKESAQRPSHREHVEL
As to the kind of experiment: Activity based protein profiling (proteome-wide selectivity screening, FP-Rh), TGH. The note with it: Table 4; for TGH selectivity (value in parentheses): ratio TGH IC50 / FAAH IC50 (fold selectivity for FAAH); for IC50: activity based protein profiling. The source says: (§1) Enzyme targets such as FAAH, KIAA1363, and TGH are labeled at the left margin.

In test [2] the target is T2, purified recombinant rat FAAH (Rattus norvegicus, UniProt P97612).
T2 construct: The truncated rat FAAH (rFAAH) was expressed in E. coli and purified as described; made in house; host or cells: Escherichia coli
T2 sequence (P97612 30-579 limits assumed): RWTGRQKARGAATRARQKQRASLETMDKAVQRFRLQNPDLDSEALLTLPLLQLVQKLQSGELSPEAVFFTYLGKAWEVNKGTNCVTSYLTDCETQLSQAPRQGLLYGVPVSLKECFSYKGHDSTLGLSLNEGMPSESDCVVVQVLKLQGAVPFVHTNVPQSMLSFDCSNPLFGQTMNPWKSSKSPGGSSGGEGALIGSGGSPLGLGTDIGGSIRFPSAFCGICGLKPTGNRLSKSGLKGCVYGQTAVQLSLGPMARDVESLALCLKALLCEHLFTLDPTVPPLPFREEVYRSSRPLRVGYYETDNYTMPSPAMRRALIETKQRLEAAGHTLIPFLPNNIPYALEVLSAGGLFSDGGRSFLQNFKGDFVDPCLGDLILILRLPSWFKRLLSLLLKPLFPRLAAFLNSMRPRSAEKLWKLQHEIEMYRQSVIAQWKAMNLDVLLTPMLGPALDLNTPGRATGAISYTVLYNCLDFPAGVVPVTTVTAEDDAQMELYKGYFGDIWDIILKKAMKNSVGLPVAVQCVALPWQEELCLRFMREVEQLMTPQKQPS
As to the kind of experiment: FAAH inhibition enzyme assay (14C-oleamide hydrolysis, Dixon plot), rat enzyme. The source says: The purified recombinant rFAAH was used in the inhibition assays unless otherwise indicated.
The ^14C-labeled oleamide (substrate) and oleic acid (product) were extracted with EtOAc and analyzed by TLC.

Test [3] has as its target T3, KIAA1363 (Mus musculus, UniProt Q8BLF1).
T3 construct: with FP-Rh in brain and heart membrane proteome; from tissue; host or cells: brain and heart membrane proteome
T3 sequence (Q8BLF1 1-408): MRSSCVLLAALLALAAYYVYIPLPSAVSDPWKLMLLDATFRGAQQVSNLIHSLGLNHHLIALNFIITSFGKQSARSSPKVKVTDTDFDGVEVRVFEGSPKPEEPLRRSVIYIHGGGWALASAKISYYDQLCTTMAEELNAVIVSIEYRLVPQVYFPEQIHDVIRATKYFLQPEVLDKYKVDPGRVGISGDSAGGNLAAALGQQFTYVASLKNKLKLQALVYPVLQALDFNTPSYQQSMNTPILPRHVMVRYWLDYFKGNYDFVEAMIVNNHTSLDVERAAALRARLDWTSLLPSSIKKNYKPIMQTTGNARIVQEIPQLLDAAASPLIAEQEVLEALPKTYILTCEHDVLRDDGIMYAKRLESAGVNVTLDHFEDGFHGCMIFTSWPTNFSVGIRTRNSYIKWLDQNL
Kind of test: Activity based protein profiling (proteome-wide selectivity screening, FP-Rh), KIAA1363. The note with it: Table 4; for IC50: activity based protein profiling.
From the text: as §1

Where [4] appears, read: Table 2, rat FAAH, pH 9 assay conditions, read-out: Ki.
The mark [5] stands for this setting: rat FAAH, pH 9 assay conditions.

As usually defined, the Ki is the equilibrium dissociation constant of an inhibitor or competing ligand from its target. A word on the IC50: it is the midpoint of a concentration-inhibition curve.

`O=C(CCCCCCc1ccccc1)c1nnc(-c2ccccc2)o1` [8e]: the “TGH selectivity (value in parentheses)” value in test [1] worked out at 10. The Ki was determined as 2.2 nM in test [2] (setting [4]) and 2.2 nM in test [2] (Table 4, read-out: FAAH Ki). The “KIAA1363 selectivity (value in parentheses)” value in test [3] (ratio KIAA1363 IC50 / FAAH IC50 (fold selectivity for FAAH)) is > 4000.

As for `COC(=O)c1nnc(C(=O)CCCCCCc2ccccc2)o1` [8h, Methyl 5-(7-Phenylheptanoyl)-1,3,4-oxadiazole-2-carboxylate], the IC50 is 2000 nM in test [1] and > 100000 nM in test [3]. Take `O=C(CCCCCCc1ccccc1)c1cnc(-c2ccccn2)o1` [compound 6, 7-Phenyl-1-(2-(pyridin-2-yl)oxazol-5-yl)-heptan-1-one]: in test [2] (with respect to oxazole 2), the “loss of FAAH inhibition” value was > 4000 fold.

In the case of `O=C(CCCCCCc1ccccc1)c1ccc(-c2cccs2)nn1` [13d, 7-Phenyl-1-(6-(thiophen-2-yl)-pyridazin-3-yl)-heptan-1-one], the Ki in test [2] (setting [4]) was determined as 46 nM. On the same count and under the same terms, to `O=C(CCCCCCc1ccccc1)c1nnc(-c2ccco2)[nH]1` [14c, 1-(5-(Furan-2-yl)-4H-1,2,4-triazol-3-yl)-7-phenylheptan-1-one] belongs > 1000 nM. In the case of `O=C(O)c1cccc(-c2nnc(C(=O)CCCCCCc3ccccc3)s2)n1` [12g, 6-(5-(7-Phenylheptanoyl)-1,3,4-thiadiazol-2-yl)-picolinic Acid], the IC50 in test [1] and in test [3] was > 100000 nM in each case.

Regarding `O=C(CCCCCCc1ccccc1)c1nnc(-c2ccccn2)[nH]1` [14b, 7-Phenyl-1-(5-(pyridin-2-yl)-4H-1,2,4-triazol-3-yl)-heptan-1-one], in test [2] (setting [4]), the Ki is > 100000 nM. Take `O=C(CCCCCCc1ccccc1)c1nc(-c2cccs2)no1` [9d, 7-Phenyl-1-(3-(thiophen-2-yl)-1,2,4-oxadiazol-5-yl)-heptan-1-one]: the Ki in test [2] (setting [4]) amounted to 1.6 nM. The same measure, in the same setting: to `O=C(CCCCCCc1ccccc1)c1ncc(-c2cccs2)s1` [11d, 7-Phenyl-1-(5-(thiophen-2-yl)-thiazol-2-yl)-heptan-1-one] belongs 2000 nM.

Consider `COC(=O)c1cccc(-c2nnc(C(=O)CCCCCCc3ccccc3)s2)n1` [12f, Methyl 6-(5-(7-Phenylheptanoyl)-1,3,4-thiadiazol-2-yl)-picolinate], for which the IC50 in test [3] was > 100000 nM. Still for that read-out and setting: the result for `COC(=O)c1cccc(-c2nc(C(=O)CCCCCCc3ccccc3)no2)n1` [10f, Methyl 6-(3-(7-Phenylheptanoyl)-1,2,4-oxadiazol-5-yl)-picolinate] reads > 100000 nM.

On to `O=C(CCCCCCc1ccccc1)c1nnn(-c2ccccc2)n1` [15e, 7-Phenyl-1-(2-phenyl-2H-tetrazol-5-yl)-heptan-1-one], for which, in test [2] (setting [4]), the Ki stood at 16 nM.

Regarding `O=C(CCCCCCc1ccccc1)c1nnc[nH]1` [14a, 7-Phenyl-1-(4H-1,2,4-triazol-3-yl)-heptan-1-one], the Ki in test [2] (setting [4]) was > 1000 nM.

`O=C(CCCCCCc1ccccc1)c1nnc(-c2cccs2)o1` [8d, 7-Phenyl-1-(5-(thien-2-yl)-1,3,4-oxadiazol-2-yl)-heptan-1-one]: the Ki in test [2] (setting [4]) amounted to 0.8 nM. `O=C(CCCCCCc1ccccc1)c1nnc(-c2ccco2)o1` [8c]: the “TGH selectivity (value in parentheses)” value in test [1] is 80. In addition, the Ki in test [2] (setting [4]) is 0.56 nM. Take `Cn1nnc(C(=O)CCCCCCc2ccccc2)n1` [19a, 1-(2-Methyl-2H-tetrazol-5-yl)-7-phenylheptan-1-one]: the “FAAH inhibition (in words)” value in test [2] (setting [5]) was “displayed FAAH inhibition at levels consistent with related compounds”. As for `O=C(CCCCCCc1ccccc1)c1nnc(-c2cccs2)s1` [12d, 7-Phenyl-1-(5-(thiophen-2-yl)-1,3,4-thiadiazol-2-yl)-heptan-1-one], the Ki in test [2] (setting [4]) is 27 nM. The same measure, in the same setting: the result for `O=C(CCCCCCc1ccccc1)c1noc(-c2cccs2)n1` [10d, 7-Phenyl-1-(5-(thiophen-2-yl)-1,2,4-oxadiazol-3-yl)-heptan-1-one] reads 44 nM. On to `COC(=O)c1nnc(C(=O)CCCCCCc2ccccc2)[nH]1` [14h, Methyl 5-(7-Phenylheptanoyl)-4H-1,2,4-triazole-3-carboxylate], for which the “FAAH inhibition (in words)” value in test [2] (setting [5]) is “inactive”. Regarding `O=C(CCCCCCc1ccccc1)c1nnn(-c2ccco2)n1` [15c, 1-(2-(Furan-2-yl)-2H-tetrazol-5-yl)-7-phenylheptan-1-one], the Ki in test [2] (setting [4]) is 5 nM. For the molecule `O=C(CCCCCCc1ccccc1)c1ncc(-c2ccccn2)s1` [11b, 7-Phenyl-1-(5-(pyridin-2-yl)-thiazol-2-yl)-heptan-1-one], the IC50 is 8000 nM in test [1] and > 100000 nM in test [3]. Turning to `O=C(CCCCCCc1ccccc1)c1noc(-c2ccco2)n1` [10c, 1-(5-(Furan-2-yl)-1,2,4-oxadiazol-3-yl)-7-phenylheptan-1-one], the Ki in test [2] (setting [4]) came to 8.5 nM.

In the case of `O=C(O)c1cccc(-c2noc(C(=O)CCCCCCc3ccccc3)n2)n1` [9g, 6-(5-(7-Phenylheptanoyl)-1,2,4-oxadiazol-3-yl)-picolinic Acid], the results for the half-maximal inhibitory concentration (IC50) in test [1] and in test [3] were 40000 nM and > 100000 nM, respectively. Consider `O=C(CCCCCCc1ccccc1)c1ncc(-c2ccccn2)o1` [compound 2, reference compound], for which the IC50 in test [1] worked out at 600 nM. In the case of `O=C(CCCCCCc1ccccc1)c1nc(-c2ccco2)no1` [9c, 1-(3-(Furan-2-yl)-1,2,4-oxadiazol-5-yl)-7-phenylheptan-1-one], the Ki in test [2] (setting [4]) was found to be 1 nM. On the same count and under the same terms, the result for `O=C(CCCCCCc1ccccc1)c1ccc(-c2ccco2)nn1` [13c, 1-(6-(Furan-2-yl)-pyridazin-3-yl)-7-phenylheptan-1-one] reads 40 nM.

Turning to `COC(=O)c1nnc(C(=O)CCCCCCc2ccccc2)s1` [12h, Methyl 5-(7-Phenylheptanoyl)-1,3,4-thiadiazole-2-carboxylate], the results for the IC50 in test [1] and in test [3] were 11000 nM and > 100000 nM, respectively. `O=C(CCCCCCc1ccccc1)c1nnc(-c2cccs2)[nH]1` [14d, 7-Phenyl-1-(5-(thiophen-2-yl)-4H-1,2,4-triazol-3-yl)-heptan-1-one]: in test [2] (setting [4]), the Ki was > 1000 nM. On the same count and under the same terms, the result for `O=C(CCCCCCc1ccccc1)c1nnn(-c2cccs2)n1` [15d, 7-Phenyl-1-(2-(thiophen-2-yl)-2H-tetrazol-5-yl)-heptan-1-one] reads 8.5 nM. For `O=C(O)c1cccc(-c2ccc(C(=O)CCCCCCc3ccccc3)nn2)n1` [13g, 6-(6-(7-Phenylheptanoyl)-pyridazin-3-yl)-picolinic Acid], the IC50 in test [1] and in test [3] was > 100000 nM throughout. For `O=C(CCCCCCc1ccccc1)c1ccc(-c2ccccn2)nn1` [13b, 7-Phenyl-1-(6-(pyridin-2-yl)-pyridazin-3-yl)-heptan-1-one], the concentration for half-maximal inhibition (IC50) in test [1] and in test [3] was > 100000 nM each time. Take `Cn1nnnc1C(=O)CCCCCCc1ccccc1` [19b, 1-(1-Methyl-1H-tetrazol-5-yl)-7-phenylheptan-1-one]: in test [2] (setting [5]), the “FAAH inhibition (in words)” value is “displayed FAAH inhibition at levels consistent with related compounds”. For `O=C(CCCCCCc1ccccc1)c1ncc(-c2ccco2)s1` [11c, 1-(5-(Furan-2-yl)-thiazol-2-yl)-7-phenylheptan-1-one], the Ki in test [2] (setting [4]) is 1500 nM.

`O=C(CCCCCCc1ccccc1)c1nnc(-c2ccco2)s1` [12c, 1-(5-(Furan-2-yl)-1,3,4-thiadiazol-2-yl)-7-phenylheptan-1-one]: the Ki in test [2] (setting [4]) came to 7.4 nM.

With `O=C(O)c1cccc(-c2cnc(C(=O)CCCCCCc3ccccc3)s2)n1` [11g, 6-(2-(7-Phenylheptanoyl)thiazol-5-yl)-picolinic Acid], the IC50 in test [1] was 30000 nM; in test [3] it was > 100000 nM.
